Test results published in paper PMC2864911, “Effect of Common Buffers and Heterocyclic Ligands on the Binding of Cu(II) at the Multimetal Binding Site in Human Serum Albumin” (Bioinorganic Chemistry and Applications, 2010).

What was measured:
[1] = biological target: T1, Multimetal Binding Site (MBS) of Human Serum Albumin (HSA) (Homo sapiens, UniProt P02768); assay: Visible-range CD titration of Cu(II) binding at MBS of HSA; conditions: for log K app (apparent binding constant of the Cu(II)-MBS complex): 100 mM ligand solution, pH 7.4, 25°C, HSA 0.3–0.5 mM, binary species only assumed; for CI (competitivity index): Cu(II) and Z = 1 μM, HSA = 0.5 mM; for CI (competitivity index) / log K e (MBS + Cu(L) = Cu(MBS)(L)) / log K T (Cu(MBS) + Cu(L) = Cu(MBS)(L) + Cu^2+): pH 7.4; for log K 111 (Cu^2+ + L + MBS = Cu(MBS)(L)): pH 7.4, conditional constant, ternary complex model; for log K e (MBS + Cu(L) = Cu(MBS)(L)): log K 111 = log K 11 + log K e; for log K T (Cu(MBS) + Cu(L) = Cu(MBS)(L) + Cu^2+): log K T = log K 111 − log K 11 − log K app (NaCl)
T1 construct: purchased Sigma
Method: The CD spectra were recorded at 25°C on a Jasco J-715 spectropolarimeter (JASCO, Japan Spectroscopic Co., Hiroshima, Japan), over the range of 300–800 nm, using a 1 cm cuvette. The spectra are expressed in terms of Δε = ε l − ε r, where ε l and ε r are molar absorption coefficients for left and right circularly polarized light, respectively. In buffer experiments the solutions contained 100 mM Hepes, Tris, Sodium Phosphate, or NaCl, at pH 7.4.
HSA was dissolved at 0.3–0.5 mM in either a 100 mM Hepes, Tris, Sodium Phosphate buffers, pH 7.4, or in an unbuffered 100 mM NaCl solution. The pH of both types of samples was controlled to remain in the 7.38–7.42 corridor and adjusted with submicroliter amounts of concentrated HCl or NaOH when necessary. Concentrations of stock solutions of HSA were estimated spectrophotometrically at 279 nm and by Cu(II) titrations. The fractional abundance of NTS in HSA was measured by careful CD titrations using calibrated Cu(II) solutions.
We chose sodium phosphate, Tris and Hepes as the most common substances used for buffering protein solutions at pH 7.4. Their effect on Cu(II) binding to HSA was studied at a 0.1 M concentration stage versus unbuffered 0.1 M NaCl, used as a control solution. The choice of the latter was dictated by the presence of 0.1 M chloride in the blood serum. The pH of the NaCl samples was controlled by additions of small quantities of concentrated HCl or NaOH solutions, when necessary. […] The titrations were monitored by CD spectroscopy, analogously to our previous studies.
A typical titration is presented on Figure 1.
Apparent binding constants (K app) for Cu(II)-MBS complexes in the presence of buffers were obtained from titrations presented in Figure 2. Table 1 contains also further constants, calculated relative to the Cu(II)-MBS interaction in NaCl, taken as corresponding to a 100% binary complex formation.
First, the effects of competition of buffers for Cu(II) were accounted for Literature protonation and Cu(II) binding constants of Hepes, Tris, and phosphate ions were used in these calculations. […] The reactions defining these constants are provided in the footnotes of Table 1.
Briefly, K 111 describes the overall formation of a ternary species, K 11 is the literature binding constant of the Cu(II) complex of a buffer, K e corresponds to the ternary complex formation by addition of buffer-complexed Cu(II) to MBS, and K T is the equilibrium constant of the formation of the ternary complex in the reaction of two binary complexes, thus featuring the tendency of binary components to form a ternary species. All these constants, except for K 11, are conditional in respect to the pH value of 7.4.

[2] = literature values ref 30–32; cited from earlier work
[3] = tested on: HSA; conditions: cited from earlier work

T1 sequence (P02768 25-609): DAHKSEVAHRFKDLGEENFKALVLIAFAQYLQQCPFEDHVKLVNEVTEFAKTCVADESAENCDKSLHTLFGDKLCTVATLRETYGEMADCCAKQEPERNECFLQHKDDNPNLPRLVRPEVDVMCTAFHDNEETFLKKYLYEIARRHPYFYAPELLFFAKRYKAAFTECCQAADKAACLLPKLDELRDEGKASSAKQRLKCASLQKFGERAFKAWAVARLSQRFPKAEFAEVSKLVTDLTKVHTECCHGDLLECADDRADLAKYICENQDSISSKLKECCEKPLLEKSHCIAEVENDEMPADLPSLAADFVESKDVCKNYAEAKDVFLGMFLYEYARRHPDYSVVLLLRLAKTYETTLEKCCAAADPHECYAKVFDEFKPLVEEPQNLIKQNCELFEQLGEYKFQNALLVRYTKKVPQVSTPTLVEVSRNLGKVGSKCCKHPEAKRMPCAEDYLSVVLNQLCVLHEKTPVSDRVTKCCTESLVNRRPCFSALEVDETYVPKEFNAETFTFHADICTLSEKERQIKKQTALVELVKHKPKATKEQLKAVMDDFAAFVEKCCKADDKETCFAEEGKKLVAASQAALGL

| Structure (SMILES) | log K app (apparent binding constant of the Cu(II)-MBS complex) [1] | CI (competitivity index) ([1]; [L] = 0.5 mM) | CI (competitivity index) ([1]; [L] = 100 mM) | log K 111 (Cu^2+ + L + MBS = Cu(MBS)(L)) [1] | log K e (MBS + Cu(L) = Cu(MBS)(L)) [1] | log K T (Cu(MBS) + Cu(L) = Cu(MBS)(L) + Cu^2+) [1] | log K 11 (Cu^2+ + L = Cu(L)) [2] | HSA binding constant [3] |
| --- | --- | --- | --- | --- | --- | --- | --- | --- |
| O=S(=O)(O)CCN1CCN(CCO)CC1 [Hepes, N-2-hydroxyethylpiperazine-N′-2-ethanesulfonic acid] | 4.45(5) | 7.71 | 9.27 | 7.54(5) | 4.32 | −0.28 | 3.22 | – |
| [Cl-].[Na+] [NaCl] | 4.60(3) | 7.62 | 7.62 | – | – | – | – | – |
| O=P(O)(O)O [Phosphate, sodium phosphate] | 5.17(7) | 8.04 | 10.13 | 8.2(1) | 5.00 | +0.40 | 3.20 | – |
| NC(CO)(CO)CO [Tris, 2-amino-2(hydroxymethyl)-1,3-propanediol] | 4.23(6) | 7.74 | 9.42 | 8.22(5) | 4.17 | −0.43 | 4.05 | – |
| CC(=O)CC(c1ccccc1)c1c(O)c2ccccc2oc1=O (stereo not shown) [War, warfarin] | – | – | – | – | – | – | – | 330000 M⁻¹ |
